Measurements taken from ChEMBL document CHEMBL1145551, “Further pterocellins from the New Zealand marine bryozoan Pterocella vesiculosa” (J Nat Prod, 2008).
Values after ≈ are worked out from the molar mass of the structure shown. Active and inactive are the calls of the source. The calls are words filed in the database; no cut-off is given here.

How the values were obtained:
P388 = test: Cytotoxicity against mouse P388 ATCC CCL 46 cells; format: functional, cell-based
Amorphotheca resinae = test: Antifungal activity against Cladosporium resinae; format: functional, organism-based
Human alphaherpesvirus 1 = test: Antiviral activity against HSV1 F ATCC VR 733 in african green monkey BSC1 cells; format: functional, organism-based; details: BSC-1
Poliovirus 1 = test: Antiviral activity against PV1 in african green monkey BSC1 cells; format: functional, organism-based; details: BSC-1
[1] = Cytotoxicity against african green monkey BSC1 cells at 40 ug/disc; format: cell-based; details: chlorocebus aethiops, bsc-1
Escherichia coli = test: Antibacterial activity against Escherichia coli; format: functional, organism-based
Bacillus subtilis = test: Antibacterial activity against Bacillus subtilis; format: functional
Pseudomonas aeruginosa = test: Antibacterial activity against Pseudomonas aeruginosa; format: functional, organism-based
Candida albicans = test: Antifungal activity against Candida albicans; format: functional, organism-based
[2] = test system: Trichophyton mentagrophytes; test: Antifungal activity against Trichophyton mentagrophytes; format: functional, organism-based

Row | Structure (SMILES) | IC50 (P388) | Activity (Amorphotheca resinae) | Activity (Human alphaherpesvirus 1) | Activity (Poliovirus 1) | Activity [1] | Activity (Escherichia coli) | MIC (Bacillus subtilis) | Activity (Pseudomonas aeruginosa) | Activity (Candida albicans) | Activity [2]
1 | COc1cn2c(cc1=O)C(=O)c1ccnc(CC(C)C)c1-2 [PTEROCELLIN A] | 0.477 µg/mL (≈ 1.68 µM) |  |  |  |  |  |  |  |  | 
2 | COc1cn2c(c(Cc3c4n(cc(OC)c3=O)-c3c(ccnc3CC(C)C)C4=O)c1=O)C(=O)c1ccnc(CC(C)C)c1-2 [PTEROCELLIN F] | > 6.25 µg/mL | inactive | inactive | inactive | Non-toxic | inactive | 1 µg | inactive | inactive | inactive
3 | COc1cn2c(cc1=O)C(=O)c1ccnc(Cc3ccccc3)c1-2 [PTEROCELLIN B] | 0.323 µg/mL (≈ 1.01 µM) |  |  |  |  |  |  |  |  | 
4 | COc1cn2c(c(C(C)C)c1=O)C(=O)c1ccnc(CC(C)C)c1-2 [PTEROCELLIN D] | 4.77 µg/mL (≈ 14.6 µM) | inactive |  |  |  |  | 0.5 µg | inactive | inactive | 
5 | COc1cn2c(c(-c3c4n(cc(OC)c3=O)-c3c(ccnc3CC(C)C)C4=O)c1=O)C(=O)c1ccnc(CC(C)C)c1-2 [PTEROCELLIN E] | > 6.25 µg/mL | inactive | inactive | inactive | Non-toxic | inactive | 1 µg | inactive | inactive | inactive
6 | COc1cn2c(c(CCCCC(C)=O)c1=O)C(=O)c1ccnc(CC(C)C)c1-2 [PTEROCELLIN C] | > 6.25 µg/mL | inactive | inactive | inactive | Non-toxic | inactive | 0.2 µg | inactive | inactive | inactive
